Reference: PubChem BioAssay AID2060894 (Molecular Pharmacology Branch, DTP, NCI, 2025)
Where “and” joins values, the source holds several entries; their conditions need not be identical. Equal entries are not always repeated. One block for each compound: values may come before it.

Test system: K12877-001-R-J1-PDC complex spheroid viability
Experiment: Anticancer human tumor K12877-001-R-J1-PDC patient-derived lung adenocarcinoma cell line growth inhibition [RAS]
Details: for viability, T/C: stronger effect = lower value
In short: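 Multi-cell-type spheroids: tumor cells plus HUVEC endothelial cells and mesenchymal stem cells. RAS-pathway inhibitors were combined with targeted agents, each dosed in half-log steps down from clinical Cmax, or from 10 microM when Cmax was unknown.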

[1] = curve of first compound, second compound 0.000949 µM
[2] = curve of first compound, second compound 0.003 µM
[3] = curve of first compound, second compound 0.00949 µM
[4] = curve of first compound, second compound 0.03 µM
[5] = curve of first compound, second compound 0.0949 µM
[6] = curve of first compound, second compound 0.3 µM
[7] = second compound 0.000949 µM, first compound 0.0316 µM
[8] = second compound 0.000949 µM, first compound 0.1 µM
[9] = second compound 0.000949 µM, first compound 0.316 µM
[10] = second compound 0.000949 µM, first compound 1 µM
[11] = second compound 0.003 µM, first compound 0.0316 µM
[12] = second compound 0.003 µM, first compound 0.1 µM
[13] = second compound 0.003 µM, first compound 0.316 µM
[14] = second compound 0.003 µM, first compound 1 µM
[15] = second compound 0.00949 µM, first compound 0.0316 µM
[16] = second compound 0.00949 µM, first compound 0.1 µM
[17] = second compound 0.00949 µM, first compound 0.316 µM
[18] = second compound 0.00949 µM, first compound 1 µM
[19] = second compound 0.03 µM, first compound 0.0316 µM
[20] = second compound 0.03 µM, first compound 0.1 µM
[21] = second compound 0.03 µM, first compound 0.316 µM
[22] = second compound 0.03 µM, first compound 1 µM
[23] = second compound 0.0949 µM, first compound 0.0316 µM
[24] = second compound 0.0949 µM, first compound 0.1 µM
[25] = second compound 0.0949 µM, first compound 0.316 µM
[26] = second compound 0.0949 µM, first compound 1 µM
[27] = second compound 0.3 µM, first compound 0.0316 µM
[28] = second compound 0.3 µM, first compound 0.1 µM
[29] = second compound 0.3 µM, first compound 0.316 µM
[30] = second compound 0.3 µM, first compound 1 µM
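Further: spheroids exposed to agents for one week before readout.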
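Wherever viability, T/C is given: tumour cells co-cultured with HUVEC and mesenchymal stem cells in spheroids.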

IC50 (curve of first compound, second compound 0.0316 µM): > 1 µM
IC50 (curve of first compound, second compound 0.1 µM): > 1 µM
IC50 (curve of first compound, second compound 0.316 µM): > 1 µM
IC50 (curve of first compound, second compound 1 µM): > 1 µM
IC50 (curve of first compound, second compound 3.16 µM): > 1 µM
IC50 (curve of first compound, second compound 10 µM): > 1 µM
SMILES: C=CC(=O)Nc1cc(Nc2nccc(-c3cn(C)c4ccccc34)n2)c(OC)cc1N(C)CCN(C)C + C#Cc1c(F)ccc2cc(O)cc(-c3ncc4c(N5CC6CCC(C5)N6)nc(OCC56CCCN5CC(F)C6)nc4c3F)c12
viability, T/C (second compound 0.0316 µM, first compound 0.00316 µM): 95.4%
viability, T/C (second compound 0.0316 µM, first compound 0.01 µM): 107%
viability, T/C (second compound 0.0316 µM, first compound 0.0316 µM): 108%
viability, T/C (second compound 0.0316 µM, first compound 0.1 µM): 106%
viability, T/C (second compound 0.0316 µM, first compound 0.316 µM): 113%
viability, T/C (second compound 0.0316 µM, first compound 1 µM): 94.3%
viability, T/C (second compound 0.1 µM, first compound 0.00316 µM): 108%
viability, T/C (second compound 0.1 µM, first compound 0.01 µM): 102%
viability, T/C (second compound 0.1 µM, first compound 0.0316 µM): 102%
viability, T/C (second compound 0.1 µM, first compound 0.1 µM): 102%
viability, T/C (second compound 0.1 µM, first compound 0.316 µM): 119%
viability, T/C (second compound 0.1 µM, first compound 1 µM): 97.7%
viability, T/C (second compound 0.316 µM, first compound 0.00316 µM): 103%
viability, T/C (second compound 0.316 µM, first compound 0.01 µM): 108%
viability, T/C (second compound 0.316 µM, first compound 0.0316 µM): 106%
viability, T/C (second compound 0.316 µM, first compound 0.1 µM): 106%
viability, T/C (second compound 0.316 µM, first compound 0.316 µM): 108%
viability, T/C (second compound 0.316 µM, first compound 1 µM): 102%
viability, T/C (second compound 1 µM, first compound 0.00316 µM): 105%
viability, T/C (second compound 1 µM, first compound 0.01 µM): 99.4%
viability, T/C (second compound 1 µM, first compound 0.0316 µM): 101%
viability, T/C (second compound 1 µM, first compound 0.1 µM): 115%
viability, T/C (second compound 1 µM, first compound 0.316 µM): 101%
viability, T/C (second compound 1 µM, first compound 1 µM): 95.3%
viability, T/C (second compound 3.16 µM, first compound 0.00316 µM): 107%
viability, T/C (second compound 3.16 µM, first compound 0.01 µM): 100%
viability, T/C (second compound 3.16 µM, first compound 0.0316 µM): 106%
viability, T/C (second compound 3.16 µM, first compound 0.1 µM): 102%
viability, T/C (second compound 3.16 µM, first compound 0.316 µM): 87.5%
viability, T/C (second compound 3.16 µM, first compound 1 µM): 95%
viability, T/C (second compound 10 µM, first compound 0.00316 µM): 106%
viability, T/C (second compound 10 µM, first compound 0.01 µM): 95.1%
viability, T/C (second compound 10 µM, first compound 0.0316 µM): 89.1%
viability, T/C (second compound 10 µM, first compound 0.1 µM): 94%
viability, T/C (second compound 10 µM, first compound 0.316 µM): 81.4%
viability, T/C (second compound 10 µM, first compound 1 µM): 79.2%

IC50 (curve of compound): > 1 µM
SMILES: CCN1CCN(Cc2ccc(Nc3ncc(F)c(-c4cc(F)c5nc(C)n(C(C)C)c5c4)n3)nc2)CC1
viability, T/C (compound 0.00316 µM): 104% (2×) and 108% and 116%
viability, T/C (compound 0.01 µM): 96.5% [middle of 4 runs]
viability, T/C (compound 0.0316 µM): 100% [middle of 4 runs]
viability, T/C (compound 0.1 µM): 103% [middle of 4 runs]
viability, T/C (compound 0.316 µM): 123% [middle of 4 runs]
viability, T/C (compound 1 µM): 96.6% [middle of 4 runs]

IC50 [1]: > 1 µM
IC50 [2]: > 1 µM
IC50 [3]: > 1 µM
IC50 [4]: 0.508 µM
IC50 [5]: 0.0988 µM
IC50 [6]: 0.0585 µM
SMILES: O=C(c1ccc(F)c(F)c1Nc1ccc(I)cc1F)N1CC(O)([C@@H]2CCCCN2)C1 + CCn1c(-c2cc(N3CCN(C)CC3)cnc2C(C)OC)c2c3cc(ccc31)-c1csc(n1)CC(NC(=O)C1CC1C)C(=O)N1CCCC(N1)C(=O)OCC(C)(C)C2
viability, T/C (second compound 0.000949 µM, first compound 0.00316 µM): 79.6%
viability, T/C (second compound 0.000949 µM, first compound 0.01 µM): 71.2%
viability, T/C [7]: 66%
viability, T/C [8]: 57.9%
viability, T/C [9]: 71.4%
viability, T/C [10]: 56%
viability, T/C (second compound 0.003 µM, first compound 0.00316 µM): 71.4%
viability, T/C (second compound 0.003 µM, first compound 0.01 µM): 66.6%
viability, T/C [11]: 68.1%
viability, T/C [12]: 79%
viability, T/C [13]: 82.6%
viability, T/C [14]: 60.5%
viability, T/C (second compound 0.00949 µM, first compound 0.00316 µM): 71.3%
viability, T/C (second compound 0.00949 µM, first compound 0.01 µM): 65.8%
viability, T/C [15]: 82%
viability, T/C [16]: 91.3%
viability, T/C [17]: 80.7%
viability, T/C [18]: 53.5%
viability, T/C (second compound 0.03 µM, first compound 0.00316 µM): 110%
viability, T/C (second compound 0.03 µM, first compound 0.01 µM): 105%
viability, T/C [19]: 98.9%
viability, T/C [20]: 72.6%
viability, T/C [21]: 59.4%
viability, T/C [22]: 40%
viability, T/C (second compound 0.0949 µM, first compound 0.00316 µM): 92.7%
viability, T/C (second compound 0.0949 µM, first compound 0.01 µM): 90.4%
viability, T/C [23]: 77.8%
viability, T/C [24]: 50.3%
viability, T/C [25]: 29%
viability, T/C [26]: 25.6%
viability, T/C (second compound 0.3 µM, first compound 0.00316 µM): 80.2%
viability, T/C (second compound 0.3 µM, first compound 0.01 µM): 74.9%
viability, T/C [27]: 54.8%
viability, T/C [28]: 44.8%
viability, T/C [29]: 29.2%
viability, T/C [30]: 20.3%

IC50 [1]: < 0.0316 µM
IC50 [2]: < 0.0316 µM
IC50 [3]: < 0.0316 µM
IC50 [4]: < 0.0316 µM
IC50 [5]: < 0.0316 µM
IC50 [6]: < 0.0316 µM
SMILES: CC(=O)OC12COC1CC(O)C1(C)C(=O)C(O)C3=C(C)C(OC(=O)C(O)C(NC(=O)OC(C)(C)C)c4ccccc4)CC(O)(C(OC(=O)c4ccccc4)C21)C3(C)C (stereo not drawn) + CCn1c(-c2cccnc2C(C)OC)c2c3cc(ccc31)N1CCOC(CC(NC(=O)C(C(C)C)N(C)C(=O)C3(F)CCN(C(=O)C#CC(C)(C)N(C)C)CC3)C(=O)N3CCCC(N3)C(=O)OCC(C)(C)C2)C1
viability, T/C [7]: 4.23%
viability, T/C [8]: 2.96%
viability, T/C [9]: 3.64%
viability, T/C [10]: 3.51%
viability, T/C (second compound 0.000949 µM, first compound 3.16 µM): 3.12%
viability, T/C (second compound 0.000949 µM, first compound 10 µM): 6.19%
viability, T/C [11]: 4.57%
viability, T/C [12]: 3.08%
viability, T/C [13]: 3.09%
viability, T/C [14]: 2.71%
viability, T/C (second compound 0.003 µM, first compound 3.16 µM): 3.37%
viability, T/C (second compound 0.003 µM, first compound 10 µM): 6.21%
viability, T/C [15]: 3.31%
viability, T/C [16]: 2.69%
viability, T/C [17]: 2.28%
viability, T/C [18]: 2.12%
viability, T/C (second compound 0.00949 µM, first compound 3.16 µM): 2.87%
viability, T/C (second compound 0.00949 µM, first compound 10 µM): 5.23%
viability, T/C [19]: 3.32%
viability, T/C [20]: 2.79%
viability, T/C [21]: 2.34%
viability, T/C [22]: 2.42%
viability, T/C (second compound 0.03 µM, first compound 3.16 µM): 2.51%
viability, T/C (second compound 0.03 µM, first compound 10 µM): 5.78%
viability, T/C [23]: 2.88%
viability, T/C [24]: 2.42%
viability, T/C [25]: 2.13%
viability, T/C [26]: 2.21%
viability, T/C (second compound 0.0949 µM, first compound 3.16 µM): 2.11%
viability, T/C (second compound 0.0949 µM, first compound 10 µM): 4.05%
viability, T/C [27]: 3.02%
viability, T/C [28]: 2.23%
viability, T/C [29]: 2.13%
viability, T/C [30]: 1.55%
viability, T/C (second compound 0.3 µM, first compound 3.16 µM): 1.93%
viability, T/C (second compound 0.3 µM, first compound 10 µM): 3.39%
